{
  "source": "patent US11589603B2",
  "about": "“Powdered nutritional product containing branched-chain amino acids and a sugar alcohol” (Abbott Laboratories, priority 2015, dated 2023)",
  "assay_type_in_all_cases": "physicochemical",
  "key": {"[1]": {"assay": "Example 5: effect of inositol isomers on dissolution of L-leucine, LC/UV of filtrate", "details": "3.50 g L-leucine without inositol isomer (None, n = 3), water 21° C., 400 rpm", "method": "The LC/UV system used to perform the tests comprised the following: 1) Column: YMC ODS-AQ, 4.6 x 250 mm, 5 μm, Waters […]; 2) Mobile Phase: Milli-Q Plus water; 3) Flow Rate: 0.4 mL/minute; 4) Temperature: 40° C.; 5) Detection: UV at 192 nm; 6) Injection: 2 μL of filtrate; and 7) Run Time: 20 minutes."}, "[2]": {"assay": "Example 3: aqueous dissolution of powdered branched-chain amino acid blend (first material) with varying myo-inositol, LC/UV of filtrate", "details": "for Dissolved amino acid (g per 16 oz.): 7.00 g BCAA blend, water 21° C., 400 rpm", "method": "(§1) Example 3 evaluates the effect that varying the myo-inositol concentration has on the aqueous dissolution of branched-chain amino acids. Two branched-chain amino acid materials were tested. The first material tested was 7.00 grams of a powdered branched-chain amino acid blend comprising 50 wt. % leucine, 25 wt. % isoleucine, and 25 wt. % valine. The second material tested was 3.5 grams of powdered leucine. Each material was tested with varying levels of powdered myo-inositol, expressed as a percentage of 17.6 grams (e.g., a serving of powdered nutritional product). For example, 1% myo-inositol is 0.176 grams, 2% myo-inositol is 0.352 grams, and so forth. The branched-chain amino acid material and the specified amount of myo-inositol were added to 16 fluid ounces of Milli-Q Plus water at 21° C. and stirred at 400 rpm. After 30 seconds and 60 seconds of stirring, an aliquot was obtained and filtered through a 0.45 μm PTFE membrane (Pall Life Sciences, Acrodisc CR 25, P/N 4501), and the filtrate of the first material was tested for valine, isoleucine, and leucine using the LC/UV method described below, while the filtrate of the second material was tested for leucine using the same LC/UV method. The test results for the first material tested are shown in Table 3, while the test results for the second material tested are shown in Table 4.\n(§2) The LC/UV system used to perform the tests comprised the following: 1) Column: YMC ODS-AQ, 4.6 x 250 mm, 5 μm, Waters P/N AQ12S052546WT; 2) Mobile Phase: Milli-Q Plus water; 3) Flow Rate: 0.4 mL/minute; 4) Temperature: 40° C.; 5) Detection: UV at 192 nm; 6) Injection: 2 μL of filtrate; and 7) Run Time: 20 minutes."}, "[3]": {"assay": "Example 3: aqueous dissolution of powdered leucine only (second material) with varying myo-inositol, LC/UV of filtrate", "details": "for Dissolved Leucine (g per 16 oz.): 3.5 g leucine only, water 21° C., 400 rpm", "method": "as §1, §2"}, "[4]": {"assay": "Example 4: aqueous dissolution of branched-chain amino acids in a powdered nutritional product with varying myo-inositol, LC/UV of filtrate", "details": "17.6 g powdered nutritional product, water 21° C., 400 rpm", "method": "as §2\nExample 4 evaluates the effect that myo-inositol concentration has on the aqueous dissolution of branched-chain amino acids (valine, isoleucine, and leucine) in a powdered nutritional product. One serving (17.6 grams) of the powdered nutritional product contains 7.00 grams of a branched-chain amino acid blend comprising 50 wt. % leucine, 25 wt. % isoleucine, and 25 wt. % valine. A serving of the powdered nutritional product with a specified amount of myo-inositol was added to 16 fluid ounces of Milli-Q Plus water at 21° C. and stirred at 400 rpm. At each specified time point, an aliquot was obtained and filtered through a 0.45 μm PTFE membrane (Pall Life Sciences, Acrodisc CR 25, P/N 4501), and the filtrate was tested for valine, isoleucine, and leucine using the LC/UV method as described in Example 3."}, "[5]": {"details": "myo-inositol 0% of 17.6 g, 30 seconds"}, "[6]": {"details": "myo-inositol 0% of 17.6 g, 60 seconds"}, "[7]": {"details": "myo-inositol 1% of 17.6 g, 30 seconds"}, "[8]": {"details": "myo-inositol 1% of 17.6 g, 60 seconds"}, "[9]": {"details": "myo-inositol 2% of 17.6 g, 30 seconds"}, "[10]": {"details": "myo-inositol 2% of 17.6 g, 60 seconds"}, "[11]": {"details": "myo-inositol 4% of 17.6 g, 30 seconds"}, "[12]": {"details": "myo-inositol 4% of 17.6 g, 60 seconds"}, "[13]": {"details": "myo-inositol 8% of 17.6 g, 30 seconds"}, "[14]": {"details": "myo-inositol 8% of 17.6 g, 60 seconds"}},
  "data": [
    {"smiles": "CC(C)C[C@H](N)C(=O)O", "note": "[Leucine, L-Leucine]", "values": [
      {"measurement": "Leu dissolved at 30 seconds (g/16 oz.)", "setting": "[1]; 30 seconds", "value": "0.422 ± 0.018", "unit": "g/16 oz."},
      {"measurement": "Leu dissolved at 60 seconds (% of total Leu)", "setting": "[1]; 60 seconds", "value": "23.7 ± 1.0 % of total Leu"},
      {"measurement": "Leu dissolved at 60 seconds (g/16 oz.)", "setting": "[1]; 60 seconds", "value": "0.828 ± 0.036", "unit": "g/16 oz."},
      {"measurement": "Dissolved amino acid (g per 16 oz.)", "setting": "[2]; [5]", "value": 0.596, "unit": "g per 16 oz."},
      {"measurement": "Dissolved amino acid (g per 16 oz.)", "setting": "[2]; [6]", "value": 1.21, "unit": "g per 16 oz."},
      {"measurement": "Dissolved amino acid (g per 16 oz.)", "setting": "[2]; [7]", "value": 0.860, "unit": "g per 16 oz."},
      {"measurement": "Dissolved amino acid (g per 16 oz.)", "setting": "[2]; [8]", "value": 1.51, "unit": "g per 16 oz."},
      {"measurement": "Dissolved amino acid (g per 16 oz.)", "setting": "[2]; [9]", "value": 0.747, "unit": "g per 16 oz."},
      {"measurement": "Dissolved amino acid (g per 16 oz.)", "setting": "[2]; [10]", "value": 1.53, "unit": "g per 16 oz."},
      {"measurement": "Dissolved amino acid (g per 16 oz.)", "setting": "[2]; [11]", "value": 0.729, "unit": "g per 16 oz."},
      {"measurement": "Dissolved amino acid (g per 16 oz.)", "setting": "[2]; [12]", "value": 1.36, "unit": "g per 16 oz."},
      {"measurement": "Dissolved amino acid (g per 16 oz.)", "setting": "[2]; [13]", "value": 1.09, "unit": "g per 16 oz."},
      {"measurement": "Dissolved amino acid (g per 16 oz.)", "setting": "[2]; [14]", "value": 1.94, "unit": "g per 16 oz."},
      {"measurement": "dissolution rate of leucine in first material compared with second material (FIG. 4)", "setting": "[2]; 30 second time point, all myo-inositol concentrations", "value": "faster"},
      {"measurement": "Dissolved Leucine (g per 16 oz.)", "setting": "[3]; [5]", "value": 0.353, "unit": "g per 16 oz."},
      {"measurement": "Dissolved Leucine (g per 16 oz.)", "setting": "[3]; [6]", "value": 0.703, "unit": "g per 16 oz."},
      {"measurement": "Dissolved Leucine (g per 16 oz.)", "setting": "[3]; [7]", "value": 0.480, "unit": "g per 16 oz."},
      {"measurement": "Dissolved Leucine (g per 16 oz.)", "setting": "[3]; [8]", "value": 1.04, "unit": "g per 16 oz."},
      {"measurement": "Dissolved Leucine (g per 16 oz.)", "setting": "[3]; [9]", "value": 0.616, "unit": "g per 16 oz."},
      {"measurement": "Dissolved Leucine (g per 16 oz.)", "setting": "[3]; [10]", "value": 1.33, "unit": "g per 16 oz."},
      {"measurement": "Dissolved Leucine (g per 16 oz.)", "setting": "[3]; [11]", "value": 0.549, "unit": "g per 16 oz."},
      {"measurement": "Dissolved Leucine (g per 16 oz.)", "setting": "[3]; [12]", "value": 1.09, "unit": "g per 16 oz."},
      {"measurement": "Dissolved Leucine (g per 16 oz.)", "setting": "[3]; [13]", "value": 0.844, "unit": "g per 16 oz."},
      {"measurement": "Dissolved Leucine (g per 16 oz.)", "setting": "[3]; [14]", "value": 1.62, "unit": "g per 16 oz."},
      {"measurement": "slope of plot of leucine dissolution vs myo-inositol on a molar basis (FIG. 5)", "setting": "[3]; second material, myo-inositol 0%, 1%, 2%, 30-second plot", "value": 1.0816},
      {"measurement": "Dissolved amino acid (g per 16 oz.)", "setting": "[4]; myo-inositol 0%, 30 seconds", "value": 1.73, "unit": "g per 16 oz."},
      {"measurement": "Dissolved amino acid (g per 16 oz.)", "setting": "[4]; myo-inositol 0%, 60 seconds", "value": 2.42, "unit": "g per 16 oz."},
      {"measurement": "Dissolved amino acid (g per 16 oz.)", "setting": "[4]; myo-inositol 0%, 90 seconds", "value": 2.67, "unit": "g per 16 oz."},
      {"measurement": "Dissolved amino acid (g per 16 oz.)", "setting": "[4]; myo-inositol 0%, 240 seconds", "value": 3.22, "unit": "g per 16 oz."},
      {"measurement": "Dissolved amino acid (g per 16 oz.)", "setting": "[4]; myo-inositol 0%, 600 seconds", "value": 3.44, "unit": "g per 16 oz."},
      {"measurement": "Dissolved amino acid (g per 16 oz.)", "setting": "[4]; myo-inositol 1%, 30 seconds", "value": 1.95, "unit": "g per 16 oz."},
      {"measurement": "Dissolved amino acid (g per 16 oz.)", "setting": "[4]; myo-inositol 1%, 60 seconds", "value": 2.51, "unit": "g per 16 oz."},
      {"measurement": "Dissolved amino acid (g per 16 oz.)", "setting": "[4]; myo-inositol 1%, 90 seconds", "value": 2.76, "unit": "g per 16 oz."},
      {"measurement": "Dissolved amino acid (g per 16 oz.)", "setting": "[4]; myo-inositol 1%, 240 seconds", "value": 3.27, "unit": "g per 16 oz."},
      {"measurement": "Dissolved amino acid (g per 16 oz.)", "setting": "[4]; myo-inositol 1%, 600 seconds", "value": 3.40, "unit": "g per 16 oz."},
      {"measurement": "Dissolved amino acid (g per 16 oz.)", "setting": "[4]; myo-inositol 2%, 30 seconds", "value": 1.91, "unit": "g per 16 oz."},
      {"measurement": "Dissolved amino acid (g per 16 oz.)", "setting": "[4]; myo-inositol 2%, 60 seconds", "value": 2.36, "unit": "g per 16 oz."},
      {"measurement": "Dissolved amino acid (g per 16 oz.)", "setting": "[4]; myo-inositol 2%, 90 seconds", "value": 2.67, "unit": "g per 16 oz."},
      {"measurement": "Dissolved amino acid (g per 16 oz.)", "setting": "[4]; myo-inositol 2%, 240 seconds", "value": 3.25, "unit": "g per 16 oz."},
      {"measurement": "Dissolved amino acid (g per 16 oz.)", "setting": "[4]; myo-inositol 2%, 600 seconds", "value": 3.45, "unit": "g per 16 oz."},
      {"measurement": "Dissolved amino acid (g per 16 oz.)", "setting": "[4]; myo-inositol 4%, 30 seconds", "value": 2.02, "unit": "g per 16 oz."},
      {"measurement": "Dissolved amino acid (g per 16 oz.)", "setting": "[4]; myo-inositol 4%, 60 seconds", "value": 2.47, "unit": "g per 16 oz."},
      {"measurement": "Dissolved amino acid (g per 16 oz.)", "setting": "[4]; myo-inositol 4%, 90 seconds", "value": 2.72, "unit": "g per 16 oz."},
      {"measurement": "Dissolved amino acid (g per 16 oz.)", "setting": "[4]; myo-inositol 4%, 240 seconds", "value": 3.23, "unit": "g per 16 oz."},
      {"measurement": "Dissolved amino acid (g per 16 oz.)", "setting": "[4]; myo-inositol 4%, 600 seconds", "value": 3.38, "unit": "g per 16 oz."},
      {"measurement": "Dissolved amino acid (g per 16 oz.)", "setting": "[4]; myo-inositol 8%, 30 seconds", "value": 1.94, "unit": "g per 16 oz."},
      {"measurement": "Dissolved amino acid (g per 16 oz.)", "setting": "[4]; myo-inositol 8%, 60 seconds", "value": 2.45, "unit": "g per 16 oz."},
      {"measurement": "Dissolved amino acid (g per 16 oz.)", "setting": "[4]; myo-inositol 8%, 90 seconds", "value": 2.66, "unit": "g per 16 oz."},
      {"measurement": "Dissolved amino acid (g per 16 oz.)", "setting": "[4]; myo-inositol 8%, 240 seconds", "value": 3.30, "unit": "g per 16 oz."},
      {"measurement": "Dissolved amino acid (g per 16 oz.)", "setting": "[4]; myo-inositol 8%, 600 seconds", "value": 3.48, "unit": "g per 16 oz."}
    ]}
  ]
}
